Measurements published in patent US8946142B2, “Beta-arrestin effectors and compositions and methods of use thereof” (Trevena, Inc., priority 2012, dated 2015).
Where a SMILES comes first, the peptide text is derived from it. [ ]: non-standard residue; d: D form. Ac6c = NC1(C(=O)O)CCCCC1; Sar = CNCC(=O)O

Columns and labels:
Format in all cases: cell-based
[1] = molecular target: T1, rat AT1aR (Rattus norvegicus, UniProt P25095); experiment: IP1 accumulation assay (IP1 G-protein assay), rat AT1aR; conditions: for Emax: read-out: Span (relative to hAngII)
T1 sequence (P25095 1-359): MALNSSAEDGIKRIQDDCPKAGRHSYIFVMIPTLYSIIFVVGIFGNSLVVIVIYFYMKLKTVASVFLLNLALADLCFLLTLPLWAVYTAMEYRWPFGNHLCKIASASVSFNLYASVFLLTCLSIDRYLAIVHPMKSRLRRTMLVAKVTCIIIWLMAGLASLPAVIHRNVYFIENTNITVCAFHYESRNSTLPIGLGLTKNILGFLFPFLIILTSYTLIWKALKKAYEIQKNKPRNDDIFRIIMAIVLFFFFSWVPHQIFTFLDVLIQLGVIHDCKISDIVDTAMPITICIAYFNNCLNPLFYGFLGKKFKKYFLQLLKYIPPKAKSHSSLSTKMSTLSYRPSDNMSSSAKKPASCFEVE

[2] = molecular target: T2, human AT1R (Homo sapiens, UniProt P30556); experiment: IP1 accumulation assay (IP1 G-protein assay), human AT1R; conditions: for Emax: read-out: Span (relative to hAngII)
T2 sequence (P30556 1-359): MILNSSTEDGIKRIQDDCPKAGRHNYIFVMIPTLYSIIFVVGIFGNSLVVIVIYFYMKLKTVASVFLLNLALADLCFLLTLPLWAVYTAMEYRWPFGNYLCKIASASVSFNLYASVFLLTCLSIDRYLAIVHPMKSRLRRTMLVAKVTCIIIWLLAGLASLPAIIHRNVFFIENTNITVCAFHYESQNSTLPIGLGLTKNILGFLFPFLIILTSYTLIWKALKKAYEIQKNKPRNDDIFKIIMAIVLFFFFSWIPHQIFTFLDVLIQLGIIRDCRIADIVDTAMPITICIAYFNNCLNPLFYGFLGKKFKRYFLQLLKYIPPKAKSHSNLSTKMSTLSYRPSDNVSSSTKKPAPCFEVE

[3] = molecular target: T2, human AT1R; experiment: beta-arrestin2 recruitment assay (PathHunter), human AT1R; conditions: for Emax: 1 h, read-out: Span (relative to hAngII)
In short: (§1)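 PathHunter enzyme-complementation assay in HEK293 cells stably expressing ProLink-tagged human AT1R or rat AT1aR; peptides (final 100 μM–1 pM) in HBSS/20 mM HEPES for 60 min at 37 °C. Detection reagent 60 min at room temperature; β-arrestin-2 recruitment read as relative luminescence.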

[4] = molecular target: T1, rat AT1aR; experiment: beta-arrestin2 recruitment assay (PathHunter), rat AT1aR; conditions: for Emax: 1 h, read-out: Span (relative to hAngII)
In short: as §1

Compound	EC50 ([1]; read-out: EC50) [nM]	Emax [1] [%]	EC50 ([1]; read-out: pEC50 (converted)) [nM]	EC50 ([2]; read-out: EC50) [nM]	Emax [2] [%]	EC50 ([2]; read-out: pEC50 (converted)) [nM]	Emax [3] [%]	EC50 ([3]; read-out: EC50) [nM]	EC50 ([3]; read-out: pEC50 (converted)) [nM]	Emax [4] [%]	EC50 ([4]; read-out: EC50) [nM]	EC50 ([4]; read-out: pEC50 (converted)) [nM]
CNCC(=O)N[C@@H](CCCNC(=N)N)C(=O)N[C@H](C(=O)N[C@@H](Cc1ccc(O)cc1)C(=O)NC1(C(=O)N[C@@H](Cc2c[nH]cn2)C(=O)N2CCC[C@H]2C(=O)N[C@@H](CCC(N)=O)C(=O)O)CCCCC1)C(C)C [SEQ ID NO: 38, Sar-Arg-Val-Tyr-cyHex-His-Pro-Gln] (H-[Sar]RVY[Ac6c]HPQ-OH)	> 0.6	< 104	> 0.631	> 1.3	< 103	> 0.631	< 101	> 3.2	> 3.16	< 105	> 3.2	> 3.16
CNCC(=O)N[C@@H](CCCNC(=N)N)C(=O)N[C@H](C(=O)N[C@@H](Cc1ccc(O)cc1)C(=O)NC1(C(=O)N[C@@H](Cc2c[nH]cn2)C(=O)N2CCC[C@H]2C(=O)N[C@@H](C)C(=O)O)CCCC1)C(C)C [SEQ ID NO: 3, Sar-Arg-Val-Tyr-cyPen-His-Pro-Ala]	> 0.6	–	> 0.631	> 10000	–	> 0.631	< 101	> 3.2	> 3.16	< 105	> 3.2	> 3.16
CNCC(=O)N[C@@H](CCCNC(=N)N)C(=O)N[C@H](C(=O)N[C@@H](Cc1ccc(O)cc1)C(=O)NC1(C(=O)N[C@@H](Cc2c[nH]cn2)C(=O)N2CCC[C@H]2C(=O)N[C@@H](C)C(=O)O)CCCCC1)C(C)C [SEQ ID NO: 2, Sar-Arg-Val-Tyr-cyHex-His-Pro-Ala]	> 0.6	–	–	10000	< 103	> 0.631	< 101	> 3.2	–	< 105	> 3.2	–
CNCC(=O)N[C@@H](CCCNC(=N)N)C(=O)N[C@H](C(=O)N[C@@H](Cc1ccc(O)cc1)C(=O)NC1(C(=O)N[C@@H](Cc2c[nH]cn2)C(=O)N2CCC[C@H]2C(=O)N[C@@H](CO)C(=O)O)CCCCC1)C(C)C [SEQ ID NO: 15, Sar-Arg-Val-Tyr-cyHex-His-Pro-Ser] (H-[Sar]RVY[Ac6c]HPS-OH)	> 0.6	< 104	> 0.631	> 1.3	–	> 0.631	< 101	> 3.2	> 3.16	< 105	> 3.2	> 3.16
CNCC(=O)N[C@@H](CCCNC(=N)N)C(=O)N[C@H](C(=O)N[C@@H](Cc1ccc(O)cc1)C(=O)NC1(C(=O)N[C@@H](Cc2c[nH]cn2)C(=O)N2CCC[C@H]2C(=O)N[C@@H](Cc2c[nH]c3ccccc23)C(=O)O)CCCCC1)C(C)C [SEQ ID NO: 54, Sar-Arg-Val-Tyr-cyHex-His-Pro-Trp] (H-[Sar]RVY[Ac6c]HPW-OH)	> 0.6	< 104	> 0.631	> 1.3	< 103	> 0.631	< 101	> 3.2	> 3.16	< 105	> 3.2	> 3.16
CNCC(=O)N[C@@H](CCCNC(=N)N)C(=O)N[C@H](C(=O)N[C@@H](Cc1ccc(O)cc1)C(=O)N1CCC[C@H]1C(=O)N[C@@H](Cc1c[nH]cn1)C(=O)N1CCC[C@H]1C(=O)N[C@@H](CC(C)C)C(=O)O)C(C)C [SEQ ID NO: 5, Sar-Arg-Val-Tyr-Pro-His-Pro-Leu] (H-[Sar]RVYPHPL-OH; N-terminus and C-terminus assumed)	–	< 104	–	–	< 103	–	< 101	–	–	< 105	–	–
